Series [1] in a line: Hepatocyte stability, mouse. The series is classed as in vitro ADME. How it is done:
(§1) SUPPLEMENTARY INFORMATION where V (ml/mg protein) is the incubation volume/mg protein added (0.5) and microsomal protein yield is taken as being 52.5 mg protein per g liver. Verapami l (0. 5 µ M ) w as us ed as a pos i t i v e cont rol to confirm ac ceptable assay performance. Ex peri ments were performed us i ng a s i ngl e ti me-cours e […]
(§2) 4.5 He pat ocy t e s t abilit y
(§3) Cryopreserved hepatocytes were used to take non-CYP mediated Phase I and Phase II enzymes into […]
(§4) than those determined using li v e r mi crosomes or other subcellular liver fractions and could be mo re predi ct i v e of a met abol i c rat e det ermi ned in vivo.
(§5) Cryopreserved mouse (batch MC539) and huma n (batch HU E50H) hepatocytes were supplied by ThermoFi sher Sci enti fi c, Pai sl ey, UK and Xenotech, LLC, respectively. Cryopreserved hepatocytes were rapidly thawed in a pre-heat ed w at er bat h at 37 °C before ad di ng to 50 ml of pre-warmed CHRM medi a (ThermoFi sher Sci enti fi c, Paisley, UK) and mi xed gentl y. […] […] 5 mi l li on v i abl e cel l s /ml i n s uppl emented W ME. Onl y s us pens i ons whi ch ac hi ev ed >80% pos t-thaw viability were us ed i n ex peri ment s . […]
(§6) DMSO and 0.25 million cells/ml. […]

Series [2] can be described thus: Hepatocyte stability, human. The series is classed as in vitro ADME. How it is done: as §1, §2, §3, §4, §5, §6
The next series deals with 44 receptor/enzyme panel. Nature of the series: Preliminary selectivity study in a 44 receptor/enzyme panel. Particulars: at a concentration of 10 μM.
The test system of another series is Plasmodium falciparum. Nature of the series: In vitro parasite reduction ratio (PRR) assay. The conditions noted are these: 10 x EC50, 120 h. The series is classed as cell-based.
In series [3] the test system is Nluc-expressing transgenic C. parvum. The experiment in a line: Anti-Cryptosporidium in vivo efficacy in IFN-γ-knockout mice (Nluc C. parvum). Details: species or system mouse. Particulars: 20 mg/kg orally once a day for 7 d. How it is done:
INF-γ–knockout mice ([28], [29]) were infected orally with Nluc-expressing transgenic C. parvum oocysts. Treatment started upon patency 4 d postinfection (p.i.), and mice were treated orally once a day for 7 d. Infection was monitored daily by luciferase measurements in pooled feces of the entire cage. Mice were followed for 3 wk after completion of drug treatment. […] NOD SCID gamma mice were infected with C. parvum oocysts ([26]). Treatment started 7 d p.i., and mice were treated orally once a day for 7 d. The study was run with four mice per cage; infection was monitored by quantitative PCR on day eight for individual mice, and data are shown as oocysts per milligram of feces. […]
Data analysis was performed using GraphPad Prism 7.0 (GraphPad S oftware), Excel 2016 (Microsoft ) and R free so ftware (https://www.r-project.org) for data pl otti ng and s tati s ti cal model li ng. […]
5. 4 M eas urement of a nt i-Cryptosporidium in vivo efficacy in IFN-γ-knockout mice (Georgia) The Nl uc-C. parvum IFN-γ-knockout (IFN-γ KO) m ouse in vivo experiments were run in acco rdance with the publ i s hed method (22). Briefly, female C57BL/ 6 IFN-γ KO mi ce, aged 6–8 weeks were infected with 10,000 C. parvum UG A1 Nl uc (Vi naya k et al 2015, Natu re) tra ns g eni c oocys ts . […]

A further series deals with C. parvum Iowa strain. The experiment in a line: In vitro inhibition of Cryptosporidium, C. parvum Iowa in HCT-8 cells (imaging). In kind it is cell-based. The conditions noted are these: HCT-8, read-out: C. parvum Iowa strain EC50.

The structures appear in SMILES notation.

Consider one molecule from publication PMC6452685, “Lysyl-tRNA synthetase as a drug target in malaria and cryptosporidiosis” (Proceedings of the National Academy of Sciences of the …, 2019).

Experimental for Plasmodium falciparum: 3.5 In vitro parasite reduction ratio (PRR) assay with Pl as modi um fal c i p aru m (G S K) The in vitro Parasite Rate Reduction assay (PRR) was conducted as previously described (8). […] Drug was renewed daily over the entire treatment period. Samples of paras i t es w ere t ak en from t he t reat ed cul t ure at i nt erv al s (24, 48, 72, 96 and 120 h t i me poi nt s ), drug was washed out and drug-free paras i t es w ere cul tured i n 96-well plates by adding fre s h e ry t hrocy t e s
and new cul ture medi a. T he n umber of vi abl e parasi tes was determi ned by the seri al di l uti on technique. Four indepe ndent serial dilutions were done with each sample to correct for experimental

Usually EC50 stands for the midpoint of the concentration-response curve. With `O=C(NCC1(O)CCC(F)(F)CC1)c1cc(=O)c2cc(F)ccc2o1` [Compound 5], the “Hepatocyte stability CLint” value in series [1] is 0.5 (mouse), <0.5 (human) mL⋅min^−1⋅g^−1; in series [2], 0.5 (mouse), <0.5 (human) mL⋅min^−1⋅g^−1. In addition, the “activity in 44 receptor/enzyme panel” value in the series with 44 receptor/enzyme panel was “no activity”. Further, in the series on Plasmodium falciparum, the “rate of killing (PRR assay)” value is “slow rate of killing”. Besides, the parasite shedding entry in series [3] (INF-γ–knockout mice) was “below detection level”. Moreover, the “reduction in parasite levels compared with control” value in series [3] (INF-γ–knockout mouse, day 8) was 10,000 fold. For the same molecule, the half-maximal effective concentration (EC50) in the series on C. parvum Iowa strain stood at 1.3 µM.
